Reference: PubChem BioAssay (NCI)
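Following 48 hours of exposure in 96-well plates, responses at five concentrations were used to interpolate endpoints linearly. At the GI50, growth is halved. At the TGI there is no net growth.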

Experiments:
Assay in all cases: NCI-60 cell line screen, 48 h
786-0 renal = system: 786-0 renal
A498 renal = system: A498 renal
A549 NSCLC = system: A549 NSCLC
ACHN renal = system: ACHN renal
CAKI-1 renal = system: CAKI-1 renal
COLO 205 colon = system: COLO 205 colon
DLD-1 colon = system: DLD-1 colon
DMS 273 small cell lung = system: DMS 273 small cell lung
EKVX NSCLC = system: EKVX NSCLC
HCC-2998 colon = system: HCC-2998 colon
HCT-116 colon = system: HCT-116 colon
HCT-15 colon = system: HCT-15 colon
HL-60(TB) leukemia = system: HL-60(TB) leukemia
HOP-62 NSCLC = system: HOP-62 NSCLC
HT29 colon = system: HT29 colon
IGROV1 ovarian = system: IGROV1 ovarian
K-562 leukemia = system: K-562 leukemia
KM12 colon = system: KM12 colon
KM20L2 colon = system: KM20L2 colon
LOX IMVI melanoma = system: LOX IMVI melanoma
LXFL 529 NSCLC = system: LXFL 529 NSCLC
M14 melanoma = system: M14 melanoma
M19-MEL melanoma = system: M19-MEL melanoma
MALME-3M melanoma = system: MALME-3M melanoma
MOLT-4 leukemia = system: MOLT-4 leukemia
NCI-H23 lung = system: NCI-H23 lung
NCI-H460 lung = system: NCI-H460 lung
NCI-H522 lung = system: NCI-H522 lung
OVCAR-3 ovarian = system: OVCAR-3 ovarian
OVCAR-4 ovarian = system: OVCAR-4 ovarian
OVCAR-8 ovarian = system: OVCAR-8 ovarian
RPMI-8226 leukemia = system: RPMI-8226 leukemia
RXF 393 renal = system: RXF 393 renal
SF-268 CNS = system: SF-268 CNS
SF-295 CNS = system: SF-295 CNS
SK-MEL-2 melanoma = system: SK-MEL-2 melanoma
SK-MEL-28 melanoma = system: SK-MEL-28 melanoma
SK-MEL-5 melanoma = system: SK-MEL-5 melanoma
SK-OV-3 ovarian = system: SK-OV-3 ovarian
SN12C renal = system: SN12C renal
SNB-19 CNS = system: SNB-19 CNS
SW-620 colon = system: SW-620 colon
TK-10 renal = system: TK-10 renal
U251 CNS = system: U251 CNS
UACC-257 melanoma = system: UACC-257 melanoma
UACC-62 melanoma = system: UACC-62 melanoma
UO-31 renal = system: UO-31 renal
XF 498 CNS = system: XF 498 CNS
CCRF-CEM leukemia = system: CCRF-CEM leukemia
DMS 114 small cell lung = system: DMS 114 small cell lung
HOP-92 NSCLC = system: HOP-92 NSCLC
NCI-H226 lung = system: NCI-H226 lung
OVCAR-5 ovarian = system: OVCAR-5 ovarian
SF-539 CNS = system: SF-539 CNS
SNB-75 CNS = system: SNB-75 CNS
SNB-78 CNS = system: SNB-78 CNS
SR leukemia = system: SR leukemia
BT-549 breast = system: BT-549 breast
DU-145 prostate = system: DU-145 prostate
HS 578T breast = system: HS 578T breast
MCF7 breast = system: MCF7 breast
MDA-MB-231 breast = system: MDA-MB-231 breast
MDA-MB-435 = system: MDA-MB-435
MDA-N = system: MDA-N
NCI/ADR-RES ovarian = system: NCI/ADR-RES ovarian
PC-3 prostate = system: PC-3 prostate
T-47D breast = system: T-47D breast

## CC(=O)C1=C([O-])C(C)OC1=O.CC(=O)C1=C([O-])C(C)OC1=O.[NH-]C1CCCC[C@H]1[NH-].[Pt+4] (stereo unspecified)
786-0 renal
  GI50: 9.67 µM
  TGI: > 100 µM
A498 renal
  GI50: 15.8 µM
  TGI: > 100 µM
A549 NSCLC
  GI50: 88.1 µM
  TGI: > 100 µM
ACHN renal
  GI50: 73.2 µM
  TGI: > 100 µM
CAKI-1 renal
  GI50: 35.9 µM
  TGI: > 100 µM
COLO 205 colon
  GI50: 35.1 µM
  TGI: > 100 µM
DLD-1 colon
  GI50: > 100 µM
  TGI: > 100 µM
DMS 273 small cell lung
  GI50: 44.9 µM
  TGI: > 100 µM
EKVX NSCLC
  GI50: > 100 µM
  TGI: > 100 µM
HCC-2998 colon
  GI50: > 100 µM
  TGI: > 100 µM
HCT-116 colon
  GI50: 45.6 µM
  TGI: > 100 µM
HCT-15 colon
  GI50: 67.4 µM
  TGI: > 100 µM
HL-60(TB) leukemia
  GI50: 16.1 µM
  TGI: > 100 µM
HOP-62 NSCLC
  GI50: > 100 µM
  TGI: > 100 µM
HT29 colon
  GI50: 63.3 µM
  TGI: > 100 µM
IGROV1 ovarian
  GI50: > 100 µM
  TGI: > 100 µM
K-562 leukemia
  GI50: 61.2 µM
  TGI: > 100 µM
KM12 colon
  GI50: > 100 µM
  TGI: > 100 µM
KM20L2 colon
  GI50: 66.7 µM
  TGI: > 100 µM
LOX IMVI melanoma
  GI50: 96.6 µM
  TGI: > 100 µM
LXFL 529 NSCLC
  GI50: 36.2 µM
  TGI: > 100 µM
M14 melanoma
  GI50: 85.3 µM
  TGI: > 100 µM
M19-MEL melanoma
  GI50: 56 µM
  TGI: > 100 µM
MALME-3M melanoma
  GI50: 48 µM
  TGI: > 100 µM
MOLT-4 leukemia
  GI50: 3.9 µM
  TGI: 53.9 µM
NCI-H23 lung
  GI50: 47.5 µM
  TGI: > 100 µM
NCI-H460 lung
  GI50: 30.5 µM
  TGI: > 100 µM
NCI-H522 lung
  GI50: 27.5 µM
  TGI: > 100 µM
OVCAR-3 ovarian
  GI50: > 100 µM
  TGI: > 100 µM
OVCAR-4 ovarian
  GI50: 88.9 µM
  TGI: > 100 µM
OVCAR-8 ovarian
  GI50: > 100 µM
  TGI: > 100 µM
RPMI-8226 leukemia
  GI50: 8.72 µM
  TGI: > 100 µM
RXF 393 renal
  GI50: > 100 µM
  TGI: > 100 µM
SF-268 CNS
  GI50: > 100 µM
  TGI: > 100 µM
SF-295 CNS
  GI50: > 100 µM
  TGI: > 100 µM
SK-MEL-2 melanoma
  GI50: > 100 µM
  TGI: > 100 µM
SK-MEL-28 melanoma
  GI50: 43.8 µM
  TGI: > 100 µM
SK-MEL-5 melanoma
  GI50: 57.5 µM
  TGI: > 100 µM
SK-OV-3 ovarian
  GI50: > 100 µM
  TGI: > 100 µM
SN12C renal
  GI50: 41.6 µM
  TGI: > 100 µM
SNB-19 CNS
  GI50: > 100 µM
  TGI: > 100 µM
SW-620 colon
  GI50: 8.69 µM
  TGI: > 100 µM
TK-10 renal
  GI50: > 100 µM
  TGI: > 100 µM
U251 CNS
  GI50: > 100 µM
  TGI: > 100 µM
UACC-257 melanoma
  GI50: > 100 µM
  TGI: > 100 µM
UACC-62 melanoma
  GI50: 42.3 µM
  TGI: > 100 µM
UO-31 renal
  GI50: > 100 µM
  TGI: > 100 µM
XF 498 CNS
  GI50: 66.9 µM
  TGI: > 100 µM

## O=c1cccccc1NCCCCCCCCCNc1cccccc1=O
786-0 renal
  TGI: 88.9 µM
A549 NSCLC
  TGI: > 100 µM
ACHN renal
  TGI: 36.2 µM
CAKI-1 renal
  TGI: > 100 µM
CCRF-CEM leukemia
  TGI: > 100 µM
COLO 205 colon
  TGI: 26.2 µM
DLD-1 colon
  TGI: > 100 µM
DMS 114 small cell lung
  TGI: 19.1 µM
DMS 273 small cell lung
  TGI: 32.6 µM
EKVX NSCLC
  TGI: 32.7 µM
HCC-2998 colon
  TGI: 78.7 µM
HCT-116 colon
  TGI: 17.4 µM
HCT-15 colon
  TGI: 39.9 µM
HL-60(TB) leukemia
  TGI: 24.5 µM
HOP-62 NSCLC
  TGI: 35.7 µM
HOP-92 NSCLC
  TGI: 41.6 µM
HT29 colon
  TGI: 65 µM
IGROV1 ovarian
  TGI: > 100 µM
K-562 leukemia
  TGI: 26.9 µM
KM12 colon
  TGI: 33.3 µM
KM20L2 colon
  TGI: 77.5 µM
LOX IMVI melanoma
  TGI: 19.1 µM
LXFL 529 NSCLC
  TGI: 24.4 µM
M14 melanoma
  TGI: 25.7 µM
M19-MEL melanoma
  TGI: 51 µM
MALME-3M melanoma
  TGI: 39.9 µM
MOLT-4 leukemia
  TGI: 24.9 µM
NCI-H226 lung
  TGI: 43.4 µM
NCI-H23 lung
  TGI: 74.6 µM
NCI-H460 lung
  TGI: 27.7 µM
NCI-H522 lung
  TGI: 52.9 µM
OVCAR-3 ovarian
  TGI: 37.5 µM
OVCAR-4 ovarian
  TGI: > 100 µM
OVCAR-5 ovarian
  TGI: 58 µM
OVCAR-8 ovarian
  TGI: 34.7 µM
RPMI-8226 leukemia
  TGI: 22.3 µM
RXF 393 renal
  TGI: 79.3 µM
SF-268 CNS
  TGI: 45.7 µM
SF-295 CNS
  TGI: 44.3 µM
SF-539 CNS
  TGI: 21.3 µM
SK-MEL-2 melanoma
  TGI: 46.8 µM
SK-OV-3 ovarian
  TGI: 99.8 µM
SN12C renal
  TGI: 62.2 µM
SNB-19 CNS
  TGI: 88.5 µM
SNB-75 CNS
  TGI: 62.9 µM
SNB-78 CNS
  TGI: 82.4 µM
SR leukemia
  TGI: 45.7 µM
SW-620 colon
  TGI: 68.2 µM
U251 CNS
  TGI: 30 µM
UACC-257 melanoma
  TGI: 7.35 µM
UACC-62 melanoma
  TGI: 28.7 µM
UO-31 renal
  TGI: 41.6 µM
XF 498 CNS
  TGI: 20 µM

## Cc1nnc2sc(-c3ccc(-c4ccccc4Cl)o3)nn12
786-0 renal
  TGI: 80.1 µM
A498 renal
  TGI: > 100 µM
A549 NSCLC
  TGI: > 100 µM
ACHN renal
  TGI: > 100 µM
BT-549 breast
  TGI: 60.3 µM
CAKI-1 renal
  TGI: > 100 µM
CCRF-CEM leukemia
  TGI: > 100 µM
COLO 205 colon
  TGI: > 100 µM
DU-145 prostate
  TGI: > 100 µM
EKVX NSCLC
  TGI: > 100 µM
HCC-2998 colon
  TGI: 64.4 µM
HCT-116 colon
  TGI: 44.2 µM
HCT-15 colon
  TGI: 86 µM
HL-60(TB) leukemia
  TGI: 63.3 µM
HOP-62 NSCLC
  TGI: > 100 µM
HOP-92 NSCLC
  TGI: > 100 µM
HS 578T breast
  TGI: > 100 µM
HT29 colon
  TGI: > 100 µM
IGROV1 ovarian
  TGI: > 100 µM
K-562 leukemia
  TGI: 56.8 µM
KM12 colon
  TGI: > 100 µM
LOX IMVI melanoma
  TGI: 53.2 µM
M14 melanoma
  TGI: > 100 µM
MALME-3M melanoma
  TGI: > 100 µM
MCF7 breast
  TGI: > 100 µM
MDA-MB-231 breast
  TGI: > 100 µM
MDA-MB-435
  TGI: 44 µM
MDA-N
  TGI: 40.6 µM
MOLT-4 leukemia
  TGI: 51.1 µM
NCI-H226 lung
  TGI: 83.5 µM
NCI-H23 lung
  TGI: 74.2 µM
NCI-H460 lung
  TGI: > 100 µM
NCI-H522 lung
  TGI: 78.4 µM
NCI/ADR-RES ovarian
  TGI: 52.8 µM
OVCAR-3 ovarian
  TGI: 84.7 µM
OVCAR-4 ovarian
  TGI: > 100 µM
OVCAR-5 ovarian
  TGI: > 100 µM
OVCAR-8 ovarian
  TGI: 53.1 µM
PC-3 prostate
  TGI: > 100 µM
RPMI-8226 leukemia
  TGI: 60 µM
RXF 393 renal
  TGI: > 100 µM
SF-268 CNS
  TGI: > 100 µM
SF-295 CNS
  TGI: > 100 µM
SF-539 CNS
  TGI: 45.9 µM
SK-MEL-2 melanoma
  TGI: 86.7 µM
SK-MEL-5 melanoma
  TGI: 61.3 µM
SK-OV-3 ovarian
  TGI: > 100 µM
SN12C renal
  TGI: > 100 µM
SNB-19 CNS
  TGI: > 100 µM
SR leukemia
  TGI: 53.6 µM
SW-620 colon
  TGI: > 100 µM
T-47D breast
  TGI: 91.6 µM
TK-10 renal
  TGI: > 100 µM
U251 CNS
  TGI: > 100 µM
UACC-257 melanoma
  TGI: > 100 µM
UACC-62 melanoma
  TGI: > 100 µM
UO-31 renal
  TGI: > 100 µM
